# Data published in patent US12247045B2, “MAP4K4 inhibitors” (Imperial College Innovations Limited, priority 2018, dated 2025).
# Molecular target: T1, human MAP4K4 kinase domain (Homo sapiens, UniProt O95819)
# T1 construct: 0.5 nM human MAP4K4 kinase domain (Invitrogen); purchased Invitrogen
# Experiment: MAP4K4 kinase activity, CisBio HTRF Transcreener ADP assay
# Type: biochemical
# Conditions: IC50 category; ATP at Km (10 μM), 0.5 nM kinase domain, 2 h; read-out: MAP4K4
# Text: Compounds of the present invention were screened for their inhibitory activity against MAP4K4, versus selected off-target hits found with early members of this chemical series. MAP4K4 kinase activity was monitored using the CisBio HTRF Transcreener ADP assay, a competitive immunoassay with a reproducible Z′>0.6. In the detection step, endogenous ADP and d2-labeled ADP compete for binding an anti-ADP monoclonal antibody labelled with Eu^3+ cryptate. A ratiometric fluorescent read-out is used at 665 and 620 nm. Reactions were performed in the presence of 1% DMSO with ATP added at Km (10 μM), 0.5 nM human MAP4K4 kinase domain (Invitrogen), 1 μM biotin-myelin basic protein as substrate (Invitrogen), and extension of reaction time to 2 h. Assays were run in Greiner low volume plates with a final reaction volume of 10 μl. The MAP4K4 inhibition data are provided in Table 41 below for selected compounds of the present invention. The data has been categorised based on the IC50 value of the compound as “A”, “B” or “C”. IC50: A≤100 nM; 100 nM<B≤1 μM; 1 μM<C; nd=not determined.
# T1 sequence (O95819 25-289 limits assumed): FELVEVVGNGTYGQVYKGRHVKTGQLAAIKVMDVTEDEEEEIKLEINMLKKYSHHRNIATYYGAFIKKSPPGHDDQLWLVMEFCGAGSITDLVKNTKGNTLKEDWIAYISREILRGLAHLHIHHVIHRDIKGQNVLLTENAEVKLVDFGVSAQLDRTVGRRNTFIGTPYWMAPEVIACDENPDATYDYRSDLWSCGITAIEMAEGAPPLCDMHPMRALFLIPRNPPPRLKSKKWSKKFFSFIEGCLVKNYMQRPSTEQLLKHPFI
row,Structure (SMILES),IC50
1,CC(=O)NC1CC(n2cc(-c3cn(-c4ccccc4)c4nc[nH]c(=O)c34)cn2)C1 (centres unmarked) [Ex-16],≤ 100 nM
2,CC(C)(CO)COc1ccc(-c2cn(-c3cccnc3)c3nc[nH]c(=O)c23)cc1 [Ex-92],≤ 100 nM
3,O=c1[nH]cnc2c(-c3ccncc3F)cn(-c3ccccc3)c12 [Ex-121],> 1000 nM
4,O=C(C1CC1)N1CC(n2cc(-c3cn(-c4cccc(F)c4)c4nc[nH]c(=O)c34)cn2)C1 [Ex-15],≤ 100 nM
5,"O=c1[nH]cnc2c1c(-c1ccc[nH]1)cn2-c1ccccc1 [Ex-56, 7-Phenyl-5-(1H-pyrrol-2-yl)-3,7-dihydro-pyrrolo[2,3-d]pyrimidin-4-one]",≤ 100 nM
6,O=c1[nH]cnc2c(-c3cncnc3)cn(-c3ccccc3)c12 [Ex-115],> 1000 nM
7,CC(=O)N1CC(n2cc(-c3cn(-c4ccccc4)c4nc[nH]c(=O)c34)cn2)C1 [Ex-60],≤ 100 nM
8,CC(=O)N1CC(n2cc(-c3cn(-c4cccnc4)c4nc[nH]c(=O)c34)cn2)C1 [Ex-35],100 to 1000 nM
9,CN(CCC(C)(C)O)c1ccc(-c2cn(-c3ccccc3)c3nc[nH]c(=O)c23)cn1 [Ex-95],≤ 100 nM
10,CC(C)(O)C(O)COc1ccc(-c2cn(-c3cccnc3)c3nc[nH]c(=O)c23)cc1 (centres unmarked) [Ex-81],≤ 100 nM
11,Cc1cc(-n2cc(-c3ccc(OCCC(C)(C)O)cc3)c3c(=O)[nH]cnc32)ccn1 [Ex-82],100 to 1000 nM
12,Cc1noc(C)c1-c1cn(-c2ccccc2)c2nc[nH]c(=O)c12 [Ex-7],> 1000 nM
13,CN1CCN(CCCOc2ccc(-c3cn(-c4cccnc4)c4nc[nH]c(=O)c34)cc2)CC1 [Ex-43],≤ 100 nM
14,O=c1[nH]cnc2c(-c3ccc(NC4CC4)nc3)cn(-c3ccccc3)c12 [Ex-135],> 1000 nM
15,O=c1[nH]cnc2c1c(-c1cccnc1)cn2-c1ccccc1 [Ex-5],≤ 100 nM
16,"O=c1[nH]cnc2c(-c3ccncc3)cn(-c3ccccc3)c12 [Ex-119, 5-Phenyl-7-pyridin-4-yl-3,5-dihydro-pyrrolo[3,2-d]pyrimidin-4-one]",100 to 1000 nM
17,O=c1[nH]cnc2c1c(-c1cnn(Cc3ccccc3)c1)cn2-c1ccccc1 [Ex-23],≤ 100 nM
18,CNCCn1cc(-c2cn(-c3ccccc3)c3nc[nH]c(=O)c23)cn1 [Ex-109],100 to 1000 nM
19,"O=c1[nH]cnc2c(-c3ccc(OC4CC4)nc3)cn(-c3ccccc3)c12 [Ex-137, 7-(6-cyclopropoxypyridin-3-yl)-5-phenyl-3,5-dihydro-4H-pyrrolo[3,2-d]pyrimidin-4-one]",100 to 1000 nM
20,O=c1[nH]cnc2c1c(-c1ccn[nH]1)cn2-c1ccccc1 [Ex-57],100 to 1000 nM
21,COCCNc1ncc(-c2cn(-c3ccncc3)c3nc[nH]c(=O)c23)cn1 [Ex-32],100 to 1000 nM
22,COC(=O)Cn1cc(-c2cn(-c3ccccc3)c3nc[nH]c(=O)c23)cn1 [Ex-21],≤ 100 nM

row,Structure (SMILES),IC50
1,CC(C)(N)COc1ccc(-c2cn(-c3cccnc3)c3nc[nH]c(=O)c23)cc1 [Ex-110],100 to 1000 nM
2,Nc1cc(-c2cn(-c3ccccc3)c3nc[nH]c(=O)c23)ccn1 [Ex-8],≤ 100 nM
3,Cn1ccc(-c2cn(-c3ccccc3)c3nc[nH]c(=O)c23)n1 [Ex-25],> 1000 nM
4,"O=c1[nH]cnc2c1c(-c1ccccc1)cn2-c1cccnc1 [Ex-1, 5-Phenyl-7-pyridin-3-yl-3,7-dihydro-pyrrolo[2,3-d]pyrimidin-4-one]",100 to 1000 nM
5,CC(C)(O)CCOc1ccc(-c2cn(-c3cccnc3)c3nc[nH]c(=O)c23)cc1F [Ex-73],≤ 100 nM
6,"CC(C)(O)COc1ccc(-c2cn(-c3cccnc3)c3nc[nH]c(=O)c23)cc1 [Ex-66, 5-(4-(2-hydroxy-2-methylpropoxy)phenyl)-7-(pyridin-3-yl)-3,7-dihydro-4H-pyrrolo[2,3-d]pyrimidin-4-one]",≤ 100 nM
7,CC(C)(O)COc1ccc(-c2cn(-c3cc[n+]([O-])cc3)c3nc[nH]c(=O)c23)cc1 [Ex-98],100 to 1000 nM
8,O=c1[nH]cnc2c1c(-c1ccccc1)cn2-c1ccncc1 [Ex-2],100 to 1000 nM
9,O=c1[nH]cnc2c1c(-c1ccccn1)cn2-c1ccccc1 [Ex-106],> 1000 nM
10,"CC(=O)OCCn1cc(-c2cn(-c3ccc(F)cc3)c3nc[nH]c(=O)c23)cn1 [Ex-47, 2-(4-(7-(4-fluorophenyl)-4-oxo-4,7-dihydro-3H-pyrrolo[2,3-d]pyrimidin-5-yl)-1H-pyrazol-1-yl)ethyl Acetate]",100 to 1000 nM
11,Cn1cc(-c2cn(-c3ccccc3)c3c(=O)[nH]cnc23)cn1 [Ex-120],100 to 1000 nM
12,O=c1[nH]cnc2c1c(-c1ccc(OCCCN3CCOCC3)cc1)cn2-c1cccnc1 [Ex-42],≤ 100 nM
13,N#Cc1cc(-c2cn(-c3ccccc3)c3nc[nH]c(=O)c23)cnc1N1CC[C@H](O)C1 [Ex-41],≤ 100 nM
14,CC(C)(O)CCOc1ccc(-c2cn(-c3cccnc3)c3nc[nH]c(=O)c23)cc1C#N [Ex-87],≤ 100 nM
15,O=c1[nH]cnc2c1c(-c1cnc(N3CC(O)C3)nc1)cn2-c1cccnc1 [Ex-37],> 1000 nM
16,"CC(C)(C)OC(=O)N1CC(n2cc(-c3cn(-c4ccccc4)c4nc[nH]c(=O)c34)cn2)C1 [Ex-65, 3-[4-(4-oxo-7-phenyl-4,7-dihydro-3H-pyrrolo[2,3-d]pyrimidin-5-yl)-pyrazol-1-yl]-azetidine-1-carboxylic acid tert-butyl ester]",≤ 100 nM
17,O=c1[nH]cnc2c1c(-c1ccncc1)cn2-c1ccccc1 [Ex-4],≤ 100 nM
18,O=c1[nH]cnc2c(-c3cnn(CCO)c3)cn(-c3ccccc3)c12 [Ex-123],100 to 1000 nM
19,CC(C)(O)CCOc1ccc(-c2cn(-c3ccccc3)c3nc[nH]c(=O)c23)cn1 [Ex-75],≤ 100 nM
20,O=c1[nH]cnc2c1c(-c1ccc(OCCC3(O)COC3)cc1)cn2-c1cccnc1 [Ex-91],≤ 100 nM
21,"O=c1[nH]cnc2c1c(-c1cn[nH]c1)cn2-c1ccccc1 [Ex-112, 7-Phenyl-5-(1H-pyrazol-4-yl)-3,7-dihydro-pyrrolo[2,3-d]pyrimidin-4-one]",≤ 100 nM
22,O=c1[nH]cnc2c(-c3cccc4cn[nH]c34)cn(-c3ccccc3)c12 [Ex-117],100 to 1000 nM

row,Structure (SMILES),IC50
1,COc1cc(-n2cc(-c3ccc(OCCC(C)(C)O)cc3)c3c(=O)[nH]cnc32)ccn1 [Ex-83],100 to 1000 nM
2,COc1ccc(-c2cn(-c3ccccc3)c3nc[nH]c(=O)c23)nc1 [Ex-105],100 to 1000 nM
3,O=c1[nH]cnc2c(-c3ccnnc3)cn(-c3ccccc3)c12 [Ex-116],100 to 1000 nM
4,COc1ccc(-n2cc(-c3ccc(OCCC(C)(C)O)cc3)c3c(=O)[nH]cnc32)cn1 [Ex-86],≤ 100 nM
5,COc1cc(-c2cn(-c3ccccc3)c3nc[nH]c(=O)c23)ccn1 [Ex-17],≤ 100 nM
6,"CC(=O)N1CC(n2cc(-c3cn(-c4ccc(F)cc4)c4nc[nH]c(=O)c34)cn2)C1 [Ex-3, 5-[1-(1-Acetyl-azetidin-3-yl)-1H-pyrazol-4-yl]-7-(4-fluoro-phenyl)-3,7-dihydro-pyrrolo[2,3-d]pyrimidin-4-one]",100 to 1000 nM
7,"CC(C)(O)CCNc1ccc(-c2cn(-c3ccccc3)c3nc[nH]c(=O)c23)cn1 [Ex-94, 5-[6-[(3-hydroxy-3-methyl-butyl)amino]-3-pyridyl]-7-phenyl-3H-pyrrolo[2,3-d]pyrimidin-4-one]",≤ 100 nM
8,"CC(C)(O)COc1ccc(-c2cn(-c3ccncc3)c3nc[nH]c(=O)c23)cc1 [Ex-68, 5-(4-(2-hydroxy-2methylpropoxy)phenyl)-7-(pyridine-4-yl)-3,7-dihydro-4H-pyrrolo[2,3-d]pyrimidin-4-one]",≤ 100 nM
9,COCCCOc1ccc(-c2cn(-c3cccnc3)c3nc[nH]c(=O)c23)cc1 [Ex-71],≤ 100 nM
10,"Nc1ccc(-c2cn(-c3ccccc3)c3c(=O)[nH]cnc23)cn1 [Ex-138, 7-(6-aminopyridin-3-yl)-5-phenyl-3,5-dihydro-4H-pyrrolo[3,2-d]pyrimidin-4-one]",≤ 100 nM
11,"CC(C)(O)CCOc1ccc(-c2cn(-c3cccnc3)c3ncn(COP(=O)(O)O)c(=O)c23)cc1 [Ex-102, (5-(4-(3-hydroxy-3-methylbutoxy)phenyl)-4-oxo-7-(pyridin-3-yl)-4,7-dihydro-3H-pyrrolo[2,3-d]pyrimidin-3-yl)methyl dihydrogen phosphate]",> 1000 nM
12,CN(CCO)c1ncc(-c2cn(-c3ccccc3)c3nc[nH]c(=O)c23)cc1C#N [Ex-53],≤ 100 nM
13,CC(C)(N)CCOc1ccc(-c2cn(-c3cccnc3)c3nc[nH]c(=O)c23)cc1 [Ex-111],100 to 1000 nM
14,Nc1ccc(-c2cn(-c3ccccc3)c3nc[nH]c(=O)c23)cn1 [Ex-9],≤ 100 nM
15,CN(CCO)c1ccc(-c2cn(-c3ccccc3)c3nc[nH]c(=O)c23)cn1 [Ex-52],≤ 100 nM
16,COCCn1cc(-c2cn(-c3cccnc3)c3nc[nH]c(=O)c23)cn1 [Ex-19],100 to 1000 nM
17,Cn1ccc(-c2cn(-c3ccccc3)c3c(=O)[nH]cnc23)n1 [Ex-122],> 1000 nM
18,O=c1[nH]cnc2c(-c3cccnc3)cn(-c3ccccc3)c12 [Ex-124],100 to 1000 nM
19,"CN(C)CCCOc1ccc(-c2cn(-c3ccccc3)c3c(=O)[nH]cnc23)cn1 [Ex-114, 7-[6-(3-Dimethylamino-propoxy)-pyridin-3-yl]-5-phenyl-3,5-dihydro-pyrrolo[3,2-d]pyrimidin-4-one]",100 to 1000 nM
20,O=c1[nH]cnc2c1c(-c1cnc(N3CC(CO)C3)nc1)cn2-c1ccccc1 [Ex-51],100 to 1000 nM
21,O=c1[nH]cnc2c1c(-c1cnc(NCCO)nc1)cn2-c1ccccc1 [Ex-49],≤ 100 nM
